Literature values in patent publication US6517822B1, “Formulations and methods for straightening hair” (priority 1998, dated 2003).

What was measured:
[1] = molarity of 0.1

Row | SMILES | tumor finding from oral exposure (animal studies) | solute ionized at equilibrium (0.01 mole in a liter of water at room temperature) | acetic acid ionized (0.1 mol, final volume 1 liter) | electrical conductivity [1]
1 | CC(N)=O [Acetamide] | liver tumors |  |  | 
2 | CC(=O)O [acetic acid] |  | about 4% | 1.3% | 4.67 reciprocal ohms (mho)
